From patent US20220096664A1, “STABILIZED FORMULATIONS CONTAINING IODINATED CONTRAST AGENTS AND CYCLODEXTRINS” (Verrow Pharmaceuticals, Inc., priority 2012, published 2022)
“Also recorded” adds a separate entry of the source. Read-outs that look alike come from different tables or passages of the source.

Assays:
Beagle dog = assay: Cardiovascular electrophysiology and hemodynamics after injection into the left main coronary artery; type: in vivo
Experimental: Aqueous formulations were prepared containing 755 mg/mL iohexol without (formulation 1) or with (formulation 2) sulfobutylether β-cyclodextrin, sodium salt (average degree of substitution-7) at an iohexol:SCD mole ratio of 1:0.025. The addition of the SCD added 154 mM sodium to the solution as its counterion. The formulations also contained 0.1 mg/mL edetate calcium disodium hydrate, and 1.2 mg/mL tromethamine buffer, with the pH of each solution adjusted to 7.4 with 1N HCl. The solutions were sterilized by filtration through a 0.22 micron filter. […]
The instrumentation provided measurement of right heart pressure, left ventricular pressure, aortic pressure, cardiac output and electrocardiography (ECG). The specific parameters measured were: systolic artery pressure (SAP), mean aortic pressure (MAP), diastolic aortic pressure (DAP), left ventricular systolic pressure (LVSP), left ventricular end diastolic pressure (LVEDP), left ventricle dP/dtmax (an indirect measure of contractile force), left ventricle dP/dtmin, cardiac output (CO), systemic vascular resistance (SVR), pulmonary vascular resistance (PVR), pulmonary artery pressure (PAP), monophasic action potential duration (MAPD30%, 50%, 90%), heart rate (HR), and from the ECG; PR interval, QRS duration, QT/QTc interval, JT/JTc interval (as needed) and arrhythmogenesis.

[1] = type: physicochemical
Experimental: (§1) The lamps were switched on and the solutions irradiated for 18 to 24 hours for the ultraviolet (UV) lamps or 72 to 90 hours for the visible (VIS) light lamps. At the end of the selected irradiation time, the cuvettes were removed from the photolysis chamber and mixed by inversion 2-times. The caps were then removed and 40 microliter aliquots taken and diluted with 1 mL of an aqueous solution containing ˜0.9 mg/mL sodium thiosulfate. The thiosulfate solution converted any I2, IO3^−, and I3^− present in the solution tor such that total iodine species could be determined in one assay.
(§2) The diluted solutions were assayed by high pressure liquid chromatography (HPLC) using a 4.6×250 mm, C-18, 5 micron particle size, reversed phase column with detection at 280 nm for the contrast agent and 230 nm for the thiosulfate and the iodide ion (r). A mobile phase of 30:70 methanol:aqueous buffer (50 mM KH2PO4+7 mL/L 40% tetrabutyl ammonium hydroxide) at 0.75 mL/min was used for elution. Injection volume was 20 microliters. External standards were prepared containing each contrast agent, potassium iodide, and sodium thiosulfate solution and analyzed along with the irradiated samples. The results were reported as weight percentage iodide formed (mg iodide/mg contrast agent times 100).
Aqueous solutions were prepared containing 50 mM iodinated contrast agent, 10 mM tromethamine HCl buffer (TRIS), with and without sulfobutylether beta-cyclodextrin with an average degree of substitution-7 (SBE7-β-CD), or 2-hydroxypropyl beta-cyclodextrin with an average degree of substitution of ˜6.3 (HP6.3-β-CD) or ˜4.3 (HP4.3-β-CD). The iohexol solution was prepared by dissolving solid iohexol powder while the other solutions were prepared by diluting commercial formulated products and adding sufficient TRIS buffer to reach 10 mM. The pH of the solutions was adjusted to 7.4 with 0.1N hydrochloric acid.
Aliquots of the solutions were irradiated with visible light for 72 hours (0.52 million lux hours). Other aliquots were autoclaved for 20 minutes at 121° C., cooled to room temperature and then irradiated with ultraviolet light for 18 hours (119 watt hours/m2). The solutions were then processed, analyzed and reported as in Example 2, except that the chromatographic peaks of the contrast agents were evaluated at 300 nm for both samples and standards.
Aqueous solutions were prepared containing 50 mM iohexol, 0, 2.5, 5, 7.5, or 10 mM tromethamine HCl (TRIS) buffer, with and without 2.5 mM sulfobutylether beta-cyclodextrin with an average degree of substitution-7 (SBE7-β-CD). The pH of the solutions was adjusted to 7.4 with 0.1N hydrochloric acid and the solutions were transferred to glass vials. The vials were stoppered, crimp-capped and autoclaved for 20 minutes at 121° C. The pH of the autoclaved solutions was measured after the solutions were at room temperature.
Aliquots of the autoclaved solutions were irradiated with visible light for 72 hours (0.52 million lux hours) and other aliquots irradiated with ultraviolet light for 18 hours (119 watt hours/m2). The solutions were then processed, analyzed and reported as in Example 2, except that the chromatographic peak of the iohexol was evaluated at 300 nm for both samples and standards.
Aqueous formulations were prepared containing iodinated contrast agents at concentrations used commercially in medical procedures. Sulfobutylether-cyclodextrin, sodium salt, average degree of substitution ˜7 (SBE7CD) was added at varying agent:CD mole ratios. The formulations were placed in glass vials, sealed with rubber stoppers and aluminum crimps, and autoclaved at 121° C. for 20 minutes. […]

[2] = contrast media solutions; cited from earlier work
[3] = Photostability: iodide formed after UV light irradiation; type: physicochemical; conditions: pH 8
Experimental: Aqueous solutions comprising iodinated contrast agents were prepared and evaluated in a photolysis chamber as described in the ICH guidance document, Q1B Photostability Testing of New Drug Substances and Products, available from the US Food and Drug Administration, incorporated herein by reference. The solutions were placed in 1 cm×1 cm (3 mL) quartz cuvettes having 2 clear sides and 2 sides etched. Lids were placed on the cuvettes and sealed with a wrap of Parafilm® around the joint. The cuvettes were placed in a photolysis chamber, upright on a flat surface beneath and centered between two horizontal 24 inch fluorescent lamps, (GE, black light F20T12, 20 watt for ultraviolet, or Philips F20T12/CW, 20 watt for visible) placed 6 cm apart. The cuvettes were positioned such that their two clear sides were facing the two lamps.
Cuvettes were spaced ˜2 cm from each other, and no closer than 15 cm from the ends of the lamps. This positioning allowed reproducible light exposure to all cuvettes.
as §1, §2
The absorbance readings at 400 nm due to light exposure were plotted against time of exposure and the resulting correlation used to determine the UV and VIS light exposure. A change in absorbance reading of 0.45 was assumed equivalent to 200 watt hours/square meter for the UV light and a change of 0.51 was assumed equivalent to 1.2 million lux hours for the VIS light. The UV lamps provided 6.62 watts/square meter and the VIS lamps provided 7180 lux.
Aqueous solutions were prepared containing 50 mM contrast agent by diluting commercially available solutions with water. Tromethamine HCl buffer (TRIS), was added to solutions as necessary to increase the TRIS content to that of the commercial product before dilution.
SCD was added to the solutions at various mole ratios and the pH of the solutions adjusted to 7.4 with 0.1N hydrochloric acid or 0.1N sodium hydroxide. The solutions were irradiated with UV light for 18 hours (119 watt hours/m^2) then processed, analyzed and reported as in Example 2. The SCDs evaluated were sulfobutyl ether beta-cyclodextrin with an average degree of substitution of 7 (SBE-704CD), and two 2-hydroxypropyl beta-cyclodextrin derivatives having 6.3 (HP-6.3n/CD) and 4.3 (HP-4.3-βCD) average degrees of substitution.
Aqueous solutions were prepared containing 50 mM contrast agent by diluting commercially available solutions with distilled water. Tromethamine HCl buffer (TRIS), was added to some solutions to increase the buffer content.
The solutions were divided and SBE-7-CD added to one aliquot at a contrast agent:SCD mole ratio of 1:1. The pH of the solutions was adjusted to 5, 6, 7, 7.4 or 8 with 0.1N hydrochloric acid or sodium hydroxide. […]

endothelial HMEC cells = conditions: incubation with sodium or potassium iodide; cited from earlier work
[4] = system: bovine aortic endothelial cells; conditions: cited from earlier work

In the case of CC(=O)N(CC(O)CO)c1c(I)c(C(=O)NCC(O)CO)c(I)c(C(=O)NCC(O)CO)c1I (stereo not drawn) [Iohexol, iohexol], the “qualitative alterations in electrocardiographic morphology” value (Beagle dog; concomitant with injection into the coronary artery) is reported as “QRS complex widening along with ST segment depression; also recorded: Scattered premature ventricular contractions”, the “ECG morphology returned to normal after the last injection” value (Beagle dog; intracoronary) is reported as “within five minutes” and the “iodide degradant after UV irradiation in the presence of the SCD” value [1] is reported as “Less of the iodide degradant was observed in the presence of the SCD”. The “stabilization against photolysis by visible light irradiation” value [1] was “the SCD also stabilized the solutions against photolysis by visible light irradiation”, the “degradation in solution after exposure to ultraviolet light” value [2] was “formation of iodine and iodide ions” and the “stabilization against photolysis by UV light” value [3] was “stabilized iohexol against photolysis by UV light”.

In the case of I [iodide], the “toxicity in cultured endothelial HMEC cells” value (endothelial HMEC cells) is given as “causes toxicity”.

For CN(C(=O)CO)c1c(I)c(C(=O)NCC(O)CO)c(I)c(C(=O)NCC(O)CO)c1I (stereo not drawn) [iomeprol], the “toxicity to bovine aortic endothelial cells” value ([4]; X-ray irradiated contrast agent) is given as “toxic to bovine aortic endothelial cells” and the “toxicity to bovine aortic endothelial cells” value ([4]; non-irradiated contrast agent) is given as “not toxic”.
